Measured values: ChEMBL document CHEMBL3580570, “Discovery and SAR study of a sulfonamide hydroxamic acid inhibitor for the botulinum neurotoxin serotype A light chain” (Medchemcomm, 2014)
pIC50, pKi: −log10 of the molar value.

Target: Botulinum neurotoxin type A (Clostridium botulinum, UniProt P0DPI0)
Experiment: Competitive inhibition of Clostridium botulinum BoNT/A LC using SNAPtide as substrate after 10 mins by FRET assay

Chain of Botulinum neurotoxin type A (P0DPI0 2-448 limits assumed): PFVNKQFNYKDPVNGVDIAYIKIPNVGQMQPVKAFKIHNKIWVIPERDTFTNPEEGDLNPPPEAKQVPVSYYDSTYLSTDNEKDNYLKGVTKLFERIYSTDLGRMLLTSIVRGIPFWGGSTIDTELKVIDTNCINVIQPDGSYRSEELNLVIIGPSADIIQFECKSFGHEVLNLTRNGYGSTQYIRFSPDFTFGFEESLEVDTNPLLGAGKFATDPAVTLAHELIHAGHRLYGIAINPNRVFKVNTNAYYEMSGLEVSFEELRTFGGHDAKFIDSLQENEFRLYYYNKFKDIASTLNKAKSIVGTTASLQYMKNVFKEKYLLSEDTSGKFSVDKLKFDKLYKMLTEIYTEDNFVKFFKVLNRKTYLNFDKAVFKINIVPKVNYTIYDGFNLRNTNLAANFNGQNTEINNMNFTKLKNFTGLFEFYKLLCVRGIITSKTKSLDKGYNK

| Compound | pKi | pIC50 |
| --- | --- | --- |
| O=C(NO)[C@@H]1C[C@@H](Oc2ccc(Cl)cc2)CN1S(=O)(=O)c1ccc(Cl)cc1 | 5.20 |  |
| CC[C@H](C)[C@H](NS(=O)(=O)c1ccc(-c2ccc(F)cc2)cc1)C(=O)NO |  | 5.02 |
| CC[C@H](C)[C@H](NS(=O)(=O)c1ccc(-c2ccc(NC(C)=O)cc2)cc1)C(=O)NO |  | < 4.00 |
| CC[C@H](C)[C@H](NS(=O)(=O)c1ccc(-c2ccc(OC)cc2)cc1)C(=O)NO |  | < 4.00 |
| CC[C@H](C)[C@H](NS(=O)(=O)c1ccc(-c2ccccc2)cc1)C(=O)NO |  | 4.56 |
| CC[C@H](C)[C@H](NS(=O)(=O)c1cccc(-c2ccc(Cl)cc2)c1)C(=O)NO |  | 5.09 |
| CC[C@H](C)[C@H](NS(=O)(=O)c1ccc2c(c1)OCCO2)C(=O)NO |  | 4.68 |
| CC[C@H](C)[C@H](NS(=O)(=O)c1ccccc1)C(=O)NO |  | < 4.00 |
| CC[C@H](C)[C@@H](NS(=O)(=O)c1ccc(-c2ccc(Cl)cc2)cc1)C(=O)NO |  | 4.93 |
| CC[C@@H](C)[C@H](NS(=O)(=O)c1ccc(-c2ccc(Cl)cc2)cc1)C(=O)NO |  | 4.38 |
| CC[C@@H](C)[C@@H](NS(=O)(=O)c1ccc(-c2ccc(Cl)cc2)cc1)C(=O)NO |  | 5.16 |
| CC(C)C[C@@H](NS(=O)(=O)c1ccc(-c2ccc(Cl)cc2)cc1)C(=O)NO |  | 4.59 |
| CC(C)C[C@H](NS(=O)(=O)c1ccc(-c2ccc(Cl)cc2)cc1)C(=O)NO |  | 4.61 |
| CC(C)[C@H](NS(=O)(=O)c1ccc(-c2ccc(Cl)cc2)cc1)C(=O)NO |  | 4.42 |
| O=C(NO)[C@H](Cc1ccccc1)NS(=O)(=O)c1ccc(-c2ccc(Cl)cc2)cc1 |  | < 4.00 |
| O=C(NO)[C@@H]1CCCN1S(=O)(=O)c1ccc(-c2ccc(Cl)cc2)cc1 |  | < 4.00 |
| CC[C@H](C)[C@H](NS(=O)(=O)c1ccc(-c2ccc(Cl)cc2)cc1)C(=O)O |  | < 4.00 |
| CC[C@H](C)[C@H](NS(=O)(=O)c1ccc(-c2ccc(Cl)cc2)cc1)C(N)=O |  | < 4.00 |
| CC[C@H](C)[C@H](NS(=O)(=O)c1ccc(-c2ccc(Cl)cc2)cc1)C(=O)NO |  | 5.00 |
| CC[C@H](C)[C@H](NS(=O)(=O)c1ccc(-c2ccc(C)cc2)cc1)C(=O)NO |  | < 4.00 |
| CC[C@@H](C)[C@@H](NS(=O)(=O)c1cccc(-c2ccc(Cl)cc2)c1)C(=O)NO |  | 6.02 |
